The text below walks through data of patent US20130035344A1, “PHARMACEUTICAL COMPOSITION FOR ORAL ADMINISTRATION” (KOWA Co., Ltd., priority 2009, published 2013).

What all share (format): physicochemical
Data set [1] can be described thus: Dissolution test, JP second method (paddle method), second fluid for dissolution test. As to the method:
The dissolubility of the samples 1 to 6 was examined according to the second method (paddle method) of the dissolution test method according to the general test methods of the Japanese Pharmacopoeia.
103.65 mg of each of the samples 1 to 6 (53.65 mg for sample 2 only) was introduced into 900 mL of the second fluid for dissolution test according to the Japanese Pharmacopoeia, and the test was carried out under the conditions of a temperature of 37±0.5° C. and a speed of paddle rotation of 50 rpm. Thus, the concentrations of the compound a after 5, 10, 15, 30, 45 and 60 minutes were measured. The sample solution collected at each time point was filtered through a membrane filter made of PTFE (DISMIC-25HP manufactured by Toyo Roshi Kaisha, Ltd.) having a pore size of 0.45 μm, and was analyzed by a high performance liquid chromatographic method using a reversed phase column (manufactured by Nomura Chemical Co., Ltd.; Develosil ODS-HG-5). Thus, the dissolution rates were calculated.
The dissolubility of the samples 7 to 15 was examined by carrying out the test in the same manner as that described in Test Example 1, except that 153.65 mg of sample 7, 98.65 mg of sample 8, 93.65 mg of sample 9, 88.65 mg of sample 10, 78.65 mg of sample 11, 68.65 mg of sample 12, 63.65 mg of sample 13, 58.65 mg of sample 14, and 55.65 mg of sample 15 were respectively introduced into 900 mL of the second fluid for dissolution test according to the Japanese Pharmacopoeia.
The dissolubility of the tablets of Examples 8 to 10 and Comparative Examples 9 and 10 was examined by carrying out the test by the same method as that described in Test Example 1, except that one tablet each of the Examples and Comparative Examples were introduced into 900 mL of the second fluid for dissolution test according to the Japanese Pharmacopoeia.
The dissolubility of the tablets of Example 11 and Comparative Example 11 was examined by carrying out the test in the same manner as that described in Test Example 1, except that each of tablets of Example 11 and Comparative Example 11 was introduced into 900 mL of the second fluid for dissolution test according to the Japanese Pharmacopoeia.

Data set [2] is described as follows: Measurement of pH value of sample or tablet in purified water. As to the method:
103.65 mg of each of the samples 1 to 6 (53.65 mg for sample 2 only) was introduced into a beaker, and 50 mL of purified water was added thereto. While the mixture was stirred with a magnetic stirrer, the pH of the solution was measured with a glass electrode type hydrogen ion concentration meter (manufactured by Toa Electronics, Inc.; HM-50V). 50 mL of purified water was further added thereto, and then the measurement of pH was carried out in the same manner.
The pH values of the samples 7 to 15 were measured in the same manner as that used in Test Example 2. Meanwhile 153.65 mg of sample 7, 98.65 mg of sample 8, 93.65 mg of sample 9, 88.65 mg of sample 10, 78.65 mg of sample 11, 68.65 mg of sample 12, 63.65 mg of sample 13, 58.65 mg of sample 14, and 55.65 mg of sample 15 were used.
The pH values of the tablets of Examples 8 to 10 and Comparative Examples 9 and 10 were measured by the same method as that used in Test Example 2. Meanwhile, one tablet was used for each measurement.
The pH values of the tablets of Example 11 and Comparative Example 11 were measured in the same manner as that used in Test Example 2. Meanwhile, one tablet was used for each measurement.

A short description of data set [3]: Solubility of compound a in water. The source says:
However, compound a has low solubility in weakly acidic environments to alkaline environments (for example, the solubility in water is 0.05% (W/V)). Therefore, in the case of patients of achlorhydria, which is considered to develop more frequently in elderly people, there has been a concern that the dissolubility of the compound a from the pharmaceutical composition in the stomach may be insufficient, and there may be variations in the efficacy of the drug.

Turning to `CSc1cc(C)nc(SC)c1NC(=O)CN1CCN(CCSc2nc3ccccc3[nH]2)CC1` [Comparative Example 1, 2-[4-[2-(Benzimidazol-2-ylthio)ethyl]piperazin-1-yl]-N-[2,4-bis(methylthio)-6-methyl-3-pyridyl]acetamide], the “dissolution rate of compound a, Time (min) 0” value in data set [1] (0 min, 900 mL JP second fluid, 37±0.5° C., paddle 50 rpm) is listed as 0%. Further, the “dissolution rate of compound a, Time (min) 5” value in data set [1] (5 min, 900 mL JP second fluid, 37±0.5° C., paddle 50 rpm) is 0%. Further, the “dissolution rate of compound a, Time (min) 10” value in data set [1] (10 min, 900 mL JP second fluid, 37±0.5° C., paddle 50 rpm) is 5.7%. Further, in data set [1] (15 min, 900 mL JP second fluid, 37±0.5° C., paddle 50 rpm), the “dissolution rate of compound a, Time (min) 15” value was 3.1%. Moreover, in data set [1] (30 min, 900 mL JP second fluid, 37±0.5° C., paddle 50 rpm), the “dissolution rate of compound a, Time (min) 30” value turned out to be 5.2%. Moreover, the “dissolution rate of compound a, Time (min) 45” value in data set [1] (45 min, 900 mL JP second fluid, 37±0.5° C., paddle 50 rpm) worked out at 7.1%. Besides, in data set [1] (60 min, 900 mL JP second fluid, 37±0.5° C., paddle 50 rpm), the “dissolution rate of compound a, Time (min) 60” value was 10.2%. Moreover, the “pH (100 mL)” value in data set [2] (after a further 50 mL purified water (100 mL)) is 5.07. Moreover, the “pH (50 mL)” value in data set [2] (sample or one tablet in 50 mL purified water, stirred) is given as 5.02.

With `CSc1cc(C)nc(SC)c1NC(=O)CN1CCN(CCSc2nc3ccccc3[nH]2)CC1` [compound a, 2-[4-[2-(Benzimidazol-2-ylthio)ethyl]piperazin-1-yl]-N-[2,4-bis(methylthio)-6-methyl-3-pyridyl]acetamide], the “dissolubility of compound a (in words)” value in data set [1] (JP second fluid, paddle method) is reported as “hardly dissolved”. For the same compound, the solubility in water in data set [3] was 0.05 % (W/V).
